Measured values from patent US7507823B2, “Process of making aripiprazole particles” (Bristol-Myers Squibb Company, priority 2004, dated 2009).
Converted amounts (≈) assume the structure as drawn.

Experiment: Solubility of aripiprazole in n-propanol
Assay type: physicochemical
Settings: organic solvent or mixture; solvent n-propanol (n-PrOH)
Protocol: The solubility of aripiprazole in n-PrOH is low, only about 7 mg/ml. Therefore, a highly saturated solution could be produced with a very low solution concentration. At such low concentrations, the number of nucleation sites within the nozzle is low enough to prevent substantial blockages. When processing n-PrOH solutions at […], pressure fluctuations were reduced to a more satisfactory level of <35 bar. […] Water was again incorporated into the solution, in an attempt to produce the monohydrate. […] The sample was, however, anhydrous.

O=C1CCc2ccc(OCCCCN3CCN(c4cccc(Cl)c4Cl)CC3)cc2N1 [aripiprazole, 7-(4-[4-(2,3-dichloropheny)-1-piperazinyl]-butoxy)-3,4-dihydro carbostyril]
solubility: ~7000 µg/mL (≈ 15.6 mM)
